Measurements published in patent US20230085307A1, “PYRIDAZINONE COMPOUND AND HERBICIDE” (NISSAN CHEMICAL CORPORATION, priority 2019, published 2023).

Columns and labels:
velvetleaf = test: Test Example 5: herbicidal effect by foliage application, plastic box (Table 20, symbol M); assay type: in vivo, velvetleaf (Abutilon theophrasti)
Summary of the method: (§1)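 Post-emergence foliar test in sterilized diluvial soil. Compound applied as water-diluted emulsion at a predetermined rate to 14-day-old plants; evaluation at three weeks.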

windgrass = test: Test Example 5: herbicidal effect by foliage application, plastic box (Table 20, symbol L); assay type: in vivo, windgrass (Apera spica-venti)
Summary of the method: as §1

chickweed = test: Test Example 5: herbicidal effect by foliage application, plastic box (Table 20, symbol P); assay type: in vivo, common chickweed (Stellaria media)
Summary of the method: as §1

blackgrass = test: Test Example 5: herbicidal effect by foliage application, plastic box (Table 20, symbol J); assay type: in vivo, blackgrass (Alopecurus myosuroides); conditions: foliage application; for herbicidal effect on J: blackgrass: evaluated three weeks after application
Summary of the method: as §1

redroot pigweed = test: Test Example 5: herbicidal effect by foliage application, plastic box (Table 20, symbol N); assay type: in vivo, redroot pigweed (Amaranthus retroflexus)
Summary of the method: as §1

wild oat = test: Test Example 5: herbicidal effect by foliage application, plastic box (Table 20, symbol I); assay type: in vivo, wild oat (Avena fatua)
Summary of the method: as §1

Italian ryegrass = test: Test Example 5: herbicidal effect by foliage application, plastic box (Table 20, symbol K); assay type: in vivo, Italian ryegrass (Lolium multiflorum)
Summary of the method: as §1

green foxtail = test: Test Example 5: herbicidal effect by foliage application, plastic box (Table 20, symbol G); assay type: in vivo, green foxtail (Setaria viridis)
Summary of the method: as §1

persian speedwell = test: Test Example 5: herbicidal effect by foliage application, plastic box (Table 20, symbol R); assay type: in vivo, Persian speedwell (Veronica persica)
Summary of the method: as §1

southern crabgrass = test: Test Example 5: herbicidal effect by foliage application, plastic box (Table 20, symbol F); assay type: in vivo, southern crabgrass (Digitaria ciliaris)
Summary of the method: as §1

barnyard grass [1] = test: Test Example 5: herbicidal effect by foliage application, plastic box (Table 20, symbol H); assay type: in vivo, barnyard grass (Echinochloa crus-galli)
Summary of the method: as §1

lambsquarters = test: Test Example 5: herbicidal effect by foliage application, plastic box (Table 20, symbol O); assay type: in vivo, lambsquarters (Chenopodium album)
Summary of the method: as §1

Chinese sprangletop = test: Test Example 3: herbicidal effect by foliage application, Wagner pot (Table 18, symbol D); assay type: in vivo, chinese sprangletop (Leptochloa chinensis)
Summary of the method: (§2)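 Plants were sown in alluvial soil held under 0.1–0.5 cm standing water and grown 14 days in a greenhouse at 25–30 °C. An emulsifiable formulation, water-diluted to the set dose, was then sprayed onto the foliage, and effects were scored three weeks later using previously defined criteria.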

rice flat sedge = test: Test Example 3: herbicidal effect by foliage application, Wagner pot (Table 18, symbol E); assay type: in vivo, rice flat sedge (Cyperus iria)
Summary of the method: as §2

barnyard grass [2] = test: Test Example 3: herbicidal effect by foliage application, Wagner pot (Table 18, symbol H); assay type: in vivo, barnyard grass (Echinochloa crus-galli)
Summary of the method: as §2

[3] = foliage application, 320 g/ha, three weeks after application
[4] = foliage application, AAH 320 g/ha, three weeks after application
[5] = foliage application, AAH 80 g/ha, three weeks after application
[6] = foliage application, 320 g/ha, evaluated three weeks after application
[7] = 320 g/ha, foliage application after 14-day growth, evaluated three weeks after application

COc1ccc(-c2sc3ccccc3c2-c2c(O)c(C)nn(C)c2=O)c(OC)n1 [1-079]
herbicidal effect grade, M: velvetleaf (velvetleaf; [3]): 0 (Herbicidal rate of 5% or less (almost no effect)) | herbicidal effect grade, L: windgrass (windgrass; [3]): 0 (Herbicidal rate of 5% or less (almost no effect)) | herbicidal effect grade, P: chickweed (chickweed; [3]): 1 (Herbicidal rate of 5% or more and less than 20%) | herbicidal effect grade, J: blackgrass (blackgrass; 320 g/ha, three weeks after application): 0 (Herbicidal rate of 5% or less (almost no effect)) | herbicidal effect grade, N: redroot pigweed (redroot pigweed; [3]): 0 (Herbicidal rate of 5% or less (almost no effect)) | herbicidal effect grade, I: wild oat (wild oat; [3]): 0 (Herbicidal rate of 5% or less (almost no effect)) | herbicidal effect grade, K: Italian ryegrass (Italian ryegrass; [3]): 0 (Herbicidal rate of 5% or less (almost no effect)) | herbicidal effect grade, G: green foxtail (green foxtail; [3]): 0 (Herbicidal rate of 5% or less (almost no effect)) | herbicidal effect grade, R: persian speedwell (persian speedwell; [3]): 0 (Herbicidal rate of 5% or less (almost no effect)) | herbicidal effect grade, F: southern crabgrass (southern crabgrass; [3]): 0 (Herbicidal rate of 5% or less (almost no effect)) | herbicidal effect grade, H: barnyard grass (barnyard grass [1]; [3]): 0 (Herbicidal rate of 5% or less (almost no effect)) | herbicidal effect grade, O: lambsquarters (lambsquarters; [3]): 0 (Herbicidal rate of 5% or less (almost no effect))

COc1cc(C(F)(F)F)ccc1-c1sc2ccccc2c1-c1c(O)c(C)nn(C)c1=O [1-155]
M: velvetleaf, herbicidal effect (velvetleaf; [4]): 0 (Herbicidal rate of 5% or less (almost no effect)) | L: windgrass, herbicidal effect (windgrass; [4]): 4 (Herbicidal rate of 70% or more and less than 90%) | P: chickweed, herbicidal effect (chickweed; [4]): 5 (Herbicidal rate of 90% or more (almost completely withered)) | herbicidal effect on D (Chinese sprangletop), rating 0-5 (Chinese sprangletop; 320 g/ha): 0 (Herbicidal rate of 5% or less (almost no effect)) | J: blackgrass, herbicidal effect (blackgrass; AAH 320 g/ha, three weeks after application): 4 (Herbicidal rate of 70% or more and less than 90%) | herbicidal effect on E (rice flat sedge), rating 0-5 (rice flat sedge; 320 g/ha): 3 (Herbicidal rate of 40% or more and less than 70%) | N: redroot pigweed, herbicidal effect (redroot pigweed; [4]): 2 (Herbicidal rate of 20% or more and less than 40%) | I: wild oat, herbicidal effect (wild oat; [4]): 1 (Herbicidal rate of 5% or more and less than 20%) | K: Italian ryegrass, herbicidal effect (Italian ryegrass; [4]): 4 (Herbicidal rate of 70% or more and less than 90%) | G: green foxtail, herbicidal effect (green foxtail; [4]): 3 (Herbicidal rate of 40% or more and less than 70%) | R: persian speedwell, herbicidal effect (persian speedwell; [4]): 4 (Herbicidal rate of 70% or more and less than 90%) | F: southern crabgrass, herbicidal effect (southern crabgrass; [4]): 0 (Herbicidal rate of 5% or less (almost no effect)) | herbicidal effect on H (barnyard grass), rating 0-5 (barnyard grass [2]; 320 g/ha): 3 (Herbicidal rate of 40% or more and less than 70%) | H: barnyard grass, herbicidal effect (barnyard grass [1]; [4]): 1 (Herbicidal rate of 5% or more and less than 20%) | O: lambsquarters, herbicidal effect (lambsquarters; [4]): 1 (Herbicidal rate of 5% or more and less than 20%)

CCCC(=O)Oc1c(OC)nn(C)c(=O)c1-c1c(-c2ccc(OC(F)(F)F)cc2)sc2ccccc12 [1-163]
M: velvetleaf, herbicidal effect (velvetleaf; [5]): 0 (Herbicidal rate of 5% or less (almost no effect)) | L: windgrass, herbicidal effect (windgrass; [5]): 0 (Herbicidal rate of 5% or less (almost no effect)) | P: chickweed, herbicidal effect (chickweed; [5]): 4 (Herbicidal rate of 70% or more and less than 90%) | herbicidal effect on D (Chinese sprangletop), rating 0-5 (Chinese sprangletop; 80 g/ha): 3 (Herbicidal rate of 40% or more and less than 70%) | J: blackgrass, herbicidal effect (blackgrass; AAH 80 g/ha, three weeks after application): 0 (Herbicidal rate of 5% or less (almost no effect)) | herbicidal effect on E (rice flat sedge), rating 0-5 (rice flat sedge; 80 g/ha): 0 (Herbicidal rate of 5% or less (almost no effect)) | N: redroot pigweed, herbicidal effect (redroot pigweed; [5]): 3 (Herbicidal rate of 40% or more and less than 70%) | I: wild oat, herbicidal effect (wild oat; [5]): 0 (Herbicidal rate of 5% or less (almost no effect)) | K: Italian ryegrass, herbicidal effect (Italian ryegrass; [5]): 0 (Herbicidal rate of 5% or less (almost no effect)) | G: green foxtail, herbicidal effect (green foxtail; [5]): 0 (Herbicidal rate of 5% or less (almost no effect)) | R: persian speedwell, herbicidal effect (persian speedwell; [5]): 5 (Herbicidal rate of 90% or more (almost completely withered)) | F: southern crabgrass, herbicidal effect (southern crabgrass; [5]): 0 (Herbicidal rate of 5% or less (almost no effect)) | herbicidal effect on H (barnyard grass), rating 0-5 (barnyard grass [2]; 80 g/ha): 1 (Herbicidal rate of 5% or more and less than 20%) | H: barnyard grass, herbicidal effect (barnyard grass [1]; [5]): 0 (Herbicidal rate of 5% or less (almost no effect)) | O: lambsquarters, herbicidal effect (lambsquarters; [5]): 2 (Herbicidal rate of 20% or more and less than 40%)

COC(=O)COc1ccc(-c2sc3ccc(F)cc3c2-c2c(O)c(C)nn(C)c2=O)cc1 [2-070]
herbicidal effect on M: velvetleaf (velvetleaf; [6]): 0 (Herbicidal rate of 5% or less (almost no effect)) | herbicidal effect on L: windgrass (windgrass; [6]): 0 (Herbicidal rate of 5% or less (almost no effect)) | herbicidal effect on P: chickweed (chickweed; [6]): 0 (Herbicidal rate of 5% or less (almost no effect)) | herbicidal effect on D (Chinese sprangletop), rating 0-5 (Chinese sprangletop; 320 g/ha): 0 (Herbicidal rate of 5% or less (almost no effect)) | herbicidal effect on J: blackgrass (blackgrass; 320 g/ha): 0 (Herbicidal rate of 5% or less (almost no effect)) | herbicidal effect on E (rice flat sedge), rating 0-5 (rice flat sedge; 320 g/ha): 0 (Herbicidal rate of 5% or less (almost no effect)) | herbicidal effect on N: redroot pigweed (redroot pigweed; [6]): 2 (Herbicidal rate of 20% or more and less than 40%) | herbicidal effect on I: wild oat (wild oat; [6]): 0 (Herbicidal rate of 5% or less (almost no effect)) | herbicidal effect on K: Italian ryegrass (Italian ryegrass; [6]): 0 (Herbicidal rate of 5% or less (almost no effect)) | herbicidal effect on G: green foxtail (green foxtail; [6]): 0 (Herbicidal rate of 5% or less (almost no effect)) | herbicidal effect on R: persian speedwell (persian speedwell; [6]): 0 (Herbicidal rate of 5% or less (almost no effect)) | herbicidal effect on F: southern crabgrass (southern crabgrass; [6]): 0 (Herbicidal rate of 5% or less (almost no effect)) | herbicidal effect on H (barnyard grass), rating 0-5 (barnyard grass [2]; 320 g/ha): 2 (Herbicidal rate of 20% or more and less than 40%) | herbicidal effect on H: barnyard grass (barnyard grass [1]; [6]): 0 (Herbicidal rate of 5% or less (almost no effect)) | herbicidal effect on O: lambsquarters (lambsquarters; [6]): 0 (Herbicidal rate of 5% or less (almost no effect))

Cc1nn(C)c(=O)c(-c2c(-c3ccc(Oc4ccccc4)cc3)sc3ccc(F)cc23)c1O [2-072]
herbicidal effect on M: velvetleaf (velvetleaf; [6]): 2 (Herbicidal rate of 20% or more and less than 40%) | herbicidal effect on L: windgrass (windgrass; [6]): 0 (Herbicidal rate of 5% or less (almost no effect)) | herbicidal effect on P: chickweed (chickweed; [6]): 0 (Herbicidal rate of 5% or less (almost no effect)) | herbicidal effect on D (Chinese sprangletop), rating 0-5 (Chinese sprangletop; 320 g/ha): 3 (Herbicidal rate of 40% or more and less than 70%) | herbicidal effect on J: blackgrass (blackgrass; 320 g/ha): 0 (Herbicidal rate of 5% or less (almost no effect)) | herbicidal effect on E (rice flat sedge), rating 0-5 (rice flat sedge; 320 g/ha): 5 (Herbicidal rate of 90% or more (almost completely withered)) | herbicidal effect on N: redroot pigweed (redroot pigweed; [6]): 3 (Herbicidal rate of 40% or more and less than 70%) | herbicidal effect on I: wild oat (wild oat; [6]): 0 (Herbicidal rate of 5% or less (almost no effect)) | herbicidal effect on K: Italian ryegrass (Italian ryegrass; [6]): 0 (Herbicidal rate of 5% or less (almost no effect)) | herbicidal effect on G: green foxtail (green foxtail; [6]): 0 (Herbicidal rate of 5% or less (almost no effect)) | herbicidal effect on R: persian speedwell (persian speedwell; [6]): 5 (Herbicidal rate of 90% or more (almost completely withered)) | herbicidal effect on F: southern crabgrass (southern crabgrass; [6]): 0 (Herbicidal rate of 5% or less (almost no effect)) | herbicidal effect on H (barnyard grass), rating 0-5 (barnyard grass [2]; 320 g/ha): 2 (Herbicidal rate of 20% or more and less than 40%) | herbicidal effect on H: barnyard grass (barnyard grass [1]; [6]): 0 (Herbicidal rate of 5% or less (almost no effect)) | herbicidal effect on O: lambsquarters (lambsquarters; [6]): 1 (Herbicidal rate of 5% or more and less than 20%)

CCCC(=O)Oc1c(C)nn(C)c(=O)c1-c1c(-c2ccc(OC)c(OC)c2)sc2c(F)cccc12 [4-014]
herbicidal effect on M: velvetleaf (evaluation grade 0-5) (velvetleaf; [7]): 3 (Herbicidal rate of 40% or more and less than 70%) | herbicidal effect on L: windgrass (evaluation grade 0-5) (windgrass; [7]): 0 (Herbicidal rate of 5% or less (almost no effect)) | herbicidal effect on P: chickweed (evaluation grade 0-5) (chickweed; [7]): 5 (Herbicidal rate of 90% or more (almost completely withered)) | herbicidal effect on Chinese sprangletop (D) (Chinese sprangletop; 320 g/ha): 0 (Herbicidal rate of 5% or less (almost no effect)) | herbicidal effect on rice flat sedge (E) (rice flat sedge; 320 g/ha): 0 (Herbicidal rate of 5% or less (almost no effect)) | herbicidal effect on N: redroot pigweed (evaluation grade 0-5) (redroot pigweed; [7]): 1 (Herbicidal rate of 5% or more and less than 20%) | herbicidal effect on I: wild oat (evaluation grade 0-5) (wild oat; [7]): 0 (Herbicidal rate of 5% or less (almost no effect)) | herbicidal effect on K: Italian ryegrass (evaluation grade 0-5) (Italian ryegrass; [7]): 1 (Herbicidal rate of 5% or more and less than 20%) | herbicidal effect on G: green foxtail (evaluation grade 0-5) (green foxtail; [7]): 4 (Herbicidal rate of 70% or more and less than 90%) | herbicidal effect on R: persian speedwell (evaluation grade 0-5) (persian speedwell; [7]): 3 (Herbicidal rate of 40% or more and less than 70%) | herbicidal effect on F: southern crabgrass (evaluation grade 0-5) (southern crabgrass; [7]): 0 (Herbicidal rate of 5% or less (almost no effect)) | herbicidal effect on barnyard grass (H) (barnyard grass [2]; 320 g/ha): 3 (Herbicidal rate of 40% or more and less than 70%) | herbicidal effect on H: barnyard grass (evaluation grade 0-5) (barnyard grass [1]; [7]): 2 (Herbicidal rate of 20% or more and less than 40%) | herbicidal effect on O: lambsquarters (evaluation grade 0-5) (lambsquarters; [7]): 0 (Herbicidal rate of 5% or less (almost no effect))
